The first test concerns rat aortic vascular smooth muscle cells. Description: PDGF-induced migration of rat aortic vascular smooth muscle cells (modified Boyden chamber, Transwell). It is filed as cell-based. The settings on record: PDGF as chemoattractant, without inhibitor. On the procedure:
The procedure for assessing vascular smooth muscle cell migration was described previously in Hidaka, Y., Eda, T., Yonemoto, M. & Kamei, T. (1992) Atheroscler. 95, 87-94. Briefly, rat aortic vascular smooth muscle cells (passage 3) were suspended (1×10^6 cells/ml) in serum free DMEM supplemented with 0.2% (w/v) bovine serum albumin (Sigma). Migration assays were performed in modified Boyden chambers using Transwell (Costar, Cambridge, Mass.) cell culture chambers with a polycarbonate 8μm pore size membrane. PDGF was dissolved in DMEM and placed in the lower compartment in the presence, or absence, of compounds of Formula (I) wherein R1, R2, R3, R5, R6 or R8 are independently OH. Vascular smooth muscle cells (5×10^5) were then loaded in the upper compartment and incubated for 24 h at 37° C. in a humidified atmosphere containing 5% CO2. Non-migrated cells on the upper surface were scraped away gently and washed three times with PBS. Filters were fixed in methanol and stained with Giemsa. The number of vascular smooth muscle cells per 100×high power field (HPF) that had migrated to the lower surface of the filters was determined microscopically. Four HPFs were counted per filter. Experiments were performed either in duplicate or triplicate.
PDGF produced concentration-dependent increases in the migration of rat vascular smooth muscle cells with maximal effect obtained at a concentration of 1 nM. […] IC50 values for compounds of Formula (I) wherein R1, R2, R3, R5, R6 or R8 are independently OH were as follows.
As for PDGF, the “concentration of maximal effect on migration” value is recorded as 1 nM.

Staying with this test, now noted: Rattus norvegicus; PDGF-induced migration; 24 h at 37° C; by position of OH group.
`COc1ccccc1OCCNCC(O)COc1cccc2[nH]c3c(O)cccc3c12` (stereo not shown) [R6] registered an IC50 of 1720 nM.

The compound `COc1ccc(O)cc1OCCNCC(O)COc1cccc2[nH]c3ccccc3c12` (stereo not shown) [R2] showed an IC50 of 410 nM. The same measure, in the same setting: under `COc1ccccc1OCCNCC(O)COc1c(O)ccc2[nH]c3ccccc3c12` (stereo not shown) [R3] stands 200 nM; under `COc1cc(O)ccc1OCCNCC(O)COc1cccc2[nH]c3ccccc3c12` (stereo not shown) [R1], 990 nM. On the same count and under the same terms, the figure for `COc1ccccc1OCCNCC(O)COc1ccc(O)c2[nH]c3ccccc3c12` (stereo not shown) [R5] is 180 nM; for `COc1ccccc1OCCNCC(O)COc1cccc2[nH]c3ccc(O)cc3c12` (stereo not shown) [R8] it is 360 nM.

The IC50 is the concentration that inhibits the measured activity by half. A high value points to weaker potency in that assay.

Source of the values: patent US5393772A, “Use of, and method of treatment using, hydroxycarbazole compounds for inhibition of smooth muscle migration and proliferation” (Boehringer Mannheim Pharmaceuticals Corporation, priority 1993, dated 1995).
